From US20150344540A1, “NOVEL GLP-1 RECEPTOR AGONISTS WITH CHOLESTEROL EFFLUX ACTIVITY” (NOVO NORDISK A/S, priority 2012, published 2015) come the findings set out here.

Where a SMILES comes first, the peptide text is derived from it. [ ]: non-standard residue; d: D form. Aib = CC(C)(N)C(=O)O

The test relates to Mouse monocyte/macrophage cell line, RAW 264.7. The test can be described thus: Cholesterol efflux assay (3H-cholesterol, macrophage cell line). Type of test: cell-based. As to conditions: RAW 264.7, 4 hrs incubation, 0.1% human serum albumin, ABCA1-mediated efflux.
Regarding `CC[C@H](C)[C@H](NC(=O)[C@H](Cc1ccccc1)NC(=O)[C@H](CCC(=O)O)NC(=O)[C@H](CCCCN)NC(=O)[C@H](C)NC(=O)[C@H](C)NC(=O)[C@H](CCC(N)=O)NC(=O)CNC(=O)[C@H](CCC(=O)O)NC(=O)[C@H](CC(C)C)NC(=O)[C@H](Cc1ccc(O)cc1)NC(=O)[C@H](CO)NC(=O)[C@H](CO)NC(=O)[C@@H](NC(=O)[C@H](CC(=O)O)NC(=O)[C@H](CO)NC(=O)[C@@H](NC(=O)[C@H](Cc1ccccc1)NC(=O)[C@@H](NC(=O)CNC(=O)[C@H](CCC(=O)O)NC(=O)C(C)(C)NC(=O)[C@@H](N)Cc1c[nH]cn1)[C@@H](C)O)[C@@H](C)O)C(C)C)C(=O)N[C@@H](C)C(=O)N[C@@H](Cc1c[nH]c2ccccc12)C(=O)N[C@@H](CC(C)C)C(=O)N[C@H](C(=O)N[C@@H](CCCCN)C(=O)NCC(=O)N[C@H](C(=O)NCC(=O)N[C@@H](CCC(=O)O)C(=O)N[C@@H](Cc1ccccc1)C(=O)N[C@@H](CC(C)C)C(N)=O)C(C)C)C(C)C` [Compound 75], the “4 h Cholesterol Efflux Emax” value is 68%.
Then `CC[C@H](C)[C@H](NC(=O)[C@H](Cc1ccccc1)NC(=O)[C@H](CCC(=O)O)NC(=O)[C@H](CCCCN)NC(=O)[C@@H](NC(=O)[C@H](CCCCN)NC(=O)[C@H](CCC(=O)O)NC(=O)CNC(=O)[C@H](CCC(=O)O)NC(=O)[C@H](CC(C)C)NC(=O)[C@H](Cc1ccc(O)cc1)NC(=O)[C@H](CO)NC(=O)[C@H](CO)NC(=O)[C@@H](NC(=O)[C@H](CC(=O)O)NC(=O)[C@H](CO)NC(=O)[C@@H](NC(=O)[C@H](Cc1ccccc1)NC(=O)[C@@H](NC(=O)CNC(=O)[C@H](CCC(=O)O)NC(=O)C(C)(C)NC(=O)[C@@H](N)Cc1c[nH]cn1)[C@@H](C)O)[C@@H](C)O)C(C)C)C(C)C)C(=O)N[C@@H](CCC(=O)O)C(=O)N[C@@H](Cc1c[nH]cn1)C(=O)N[C@@H](CC(C)C)C(=O)N[C@H](C(=O)N[C@@H](CCC(=O)O)C(=O)N[C@@H](CCCCN)C(=O)NC(C)(C)C(=O)N[C@@H](CCCCN)C(=O)N[C@@H](CCC(=O)O)C(=O)N[C@@H](Cc1ccccc1)C(=O)N[C@@H](CC(C)C)C(N)=O)C(C)C` [Compound 71, [Aib8,Glu23,Lys24,Val25,Glu30,His31,Glu34,Lys35,Aib36,Lys37]-GLP-1-(7-37)-peptidyl-Glu-Phe-Leu amide] (H-H[Aib]EGTFTSDVSSYLEGEKVKEFIEHLVEK[Aib]KEFL-NH2), with 130%.
On to `CC[C@H](C)[C@H](NC(=O)[C@H](Cc1ccccc1)NC(=O)[C@H](CCC(=O)O)NC(=O)[C@H](CCCCN)NC(=O)[C@@H](NC(=O)[C@H](C)NC(=O)[C@H](CCC(=O)O)NC(=O)CNC(=O)[C@H](CCC(=O)O)NC(=O)[C@H](CC(C)C)NC(=O)[C@H](Cc1ccc(O)cc1)NC(=O)[C@H](CO)NC(=O)[C@H](CO)NC(=O)[C@@H](NC(=O)[C@H](CC(=O)O)NC(=O)[C@H](CO)NC(=O)[C@@H](NC(=O)[C@H](Cc1ccccc1)NC(=O)[C@@H](NC(=O)CNC(=O)[C@H](CCC(=O)O)NC(=O)C(C)(C)NC(=O)[C@@H](N)Cc1c[nH]cn1)[C@@H](C)O)[C@@H](C)O)C(C)C)C(C)C)C(=O)N[C@@H](C)C(=O)N[C@@H](Cc1c[nH]c2ccccc12)C(=O)N[C@@H](CC(C)C)C(=O)N[C@H](C(=O)N[C@@H](CCC(=O)O)C(=O)N[C@@H](CCCCN)C(=O)NC(C)(C)C(=O)N[C@@H](CCCCN)C(=O)N[C@@H](CCC(=O)O)C(=O)N[C@@H](Cc1ccccc1)C(=O)N[C@@H](Cc1c[nH]cn1)C(N)=O)C(C)C` [Compound 22, [Aib8,Glu23,Val25,Glu34,Lys35,Aib36,Lys37]-GLP-1-(7-37)-peptidyl-Glu-Phe-His amide] (H-H[Aib]EGTFTSDVSSYLEGEAVKEFIAWLVEK[Aib]KEFH-NH2), for which the “4 h Cholesterol Efflux Emax” value amounted to 106%.
Then `CC[C@H](C)[C@H](NC(=O)[C@H](Cc1ccccc1)NC(=O)[C@H](CCC(=O)O)NC(=O)[C@H](CCCCN)NC(=O)[C@@H](NC(=O)[C@H](C)NC(=O)[C@H](CCC(=O)O)NC(=O)CNC(=O)[C@H](CCC(=O)O)NC(=O)[C@H](CC(C)C)NC(=O)[C@H](Cc1ccc(O)cc1)NC(=O)[C@H](CO)NC(=O)[C@H](CO)NC(=O)[C@@H](NC(=O)[C@H](CC(=O)O)NC(=O)[C@H](CO)NC(=O)[C@@H](NC(=O)[C@H](Cc1ccccc1)NC(=O)[C@@H](NC(=O)CNC(=O)[C@H](CCC(=O)O)NC(=O)C(C)(C)NC(=O)[C@@H](N)Cc1c[nH]cn1)[C@@H](C)O)[C@@H](C)O)C(C)C)C(C)C)C(=O)N[C@@H](C)C(=O)N[C@@H](Cc1c[nH]c2ccccc12)C(=O)N[C@@H](CC(C)C)C(=O)N[C@H](C(=O)N[C@@H](CCC(=O)O)C(=O)N[C@@H](CCCCN)C(=O)N[C@H](C(=O)N[C@@H](CCCCN)C(=O)N[C@@H](CCC(=O)O)C(=O)N[C@@H](CC(C)C)C(=O)N[C@@H](CC(C)C)C(N)=O)C(C)C)C(C)C` [Compound 119, [Aib8,Glu23,Val25,Glu34,Lys35,Val36,Lys37]-GLP-1-(7-37)-peptidyl-Glu-Leu-Leu amide] (H-H[Aib]EGTFTSDVSSYLEGEAVKEFIAWLVEKVKELL-NH2), with 117%; and “H-HGEGTFTSDVSSYLEGEAVKEFIAWLVEKVKEFLG-OH [Compound 92, [Gly8,Glu23,Val25,Glu34,Lys35,Val36,Lys37]-GLP-1-(7-37)-peptidyl-Glu-Phe-Leu-Gly]”, with 129%.
Under `CC[C@H](C)[C@H](NC(=O)[C@H](Cc1ccccc1)NC(=O)[C@H](CCC(=O)O)NC(=O)[C@H](CCCCN)NC(=O)[C@@H](NC(=O)[C@H](C)NC(=O)[C@H](CCC(=O)O)NC(=O)CNC(=O)[C@H](CCC(=O)O)NC(=O)[C@H](CC(C)C)NC(=O)[C@H](Cc1ccc(O)cc1)NC(=O)[C@H](CO)NC(=O)[C@H](CO)NC(=O)[C@@H](NC(=O)[C@H](CC(=O)O)NC(=O)[C@H](CO)NC(=O)[C@@H](NC(=O)[C@H](Cc1ccccc1)NC(=O)[C@@H](NC(=O)CNC(=O)[C@H](CCC(=O)O)NC(=O)C(C)(C)NC(=O)[C@@H](N)Cc1c[nH]cn1)[C@@H](C)O)[C@@H](C)O)C(C)C)C(C)C)C(=O)N[C@@H](CCCCN)C(=O)N[C@@H](Cc1c[nH]c2ccccc12)C(=O)N[C@@H](CC(C)C)C(=O)N[C@H](C(=O)N[C@@H](CCC(=O)O)C(=O)N[C@@H](CCCCN)C(=O)N[C@@H](CC(C)C)C(=O)N[C@@H](CCCCN)C(=O)N[C@@H](CCC(=O)O)C(=O)N[C@@H](Cc1ccccc1)C(=O)N[C@@H](CC(C)C)C(N)=O)C(C)C` [Compound 85, [Aib8,Glu23,Val25,Lys30,Glu34,Lys35,Leu36,Lys37]-GLP-1-(7-37)-peptidyl-Glu-Phe-Leu amide] (H-H[Aib]EGTFTSDVSSYLEGEAVKEFIKWLVEKLKEFL-NH2) stands 93%.
Then `CC[C@H](C)[C@H](NC(=O)[C@H](Cc1ccccc1)NC(=O)[C@H](CCC(N)=O)NC(=O)[C@H](CCCCN)NC(=O)[C@@H](NC(=O)[C@H](C)NC(=O)[C@H](CCC(N)=O)NC(=O)CNC(=O)[C@H](CCC(=O)O)NC(=O)[C@H](CC(C)C)NC(=O)[C@H](Cc1ccc(O)cc1)NC(=O)[C@H](CO)NC(=O)[C@H](CO)NC(=O)[C@@H](NC(=O)[C@H](CC(=O)O)NC(=O)[C@H](CO)NC(=O)[C@@H](NC(=O)[C@H](Cc1ccccc1)NC(=O)[C@@H](NC(=O)CNC(=O)[C@H](CCC(=O)O)NC(=O)C(C)(C)NC(=O)[C@@H](N)Cc1c[nH]cn1)[C@@H](C)O)[C@@H](C)O)C(C)C)C(C)C)C(=O)N[C@@H](C)C(=O)N[C@@H](Cc1c[nH]c2ccccc12)C(=O)N[C@@H](CC(C)C)C(=O)N[C@H](C(=O)N[C@@H](CCC(N)=O)C(=O)N[C@@H](CCCCN)C(=O)NC(C)(C)C(=O)N[C@@H](CCCCN)C(=O)N[C@@H](CCC(N)=O)C(=O)N[C@@H](Cc1ccccc1)C(=O)N[C@@H](CC(C)C)C(N)=O)C(C)C` [Compound 102, [Aib8,Val25,Gln27,Gln34,Lys35,Aib36,Lys37]-GLP-1-(7-37)-peptidyl-Gln-Phe-Leu amide] (H-H[Aib]EGTFTSDVSSYLEGQAVKQFIAWLVQK[Aib]KQFL-NH2), with 100%; and `CC[C@H](C)[C@H](NC(=O)[C@H](Cc1ccccc1)NC(=O)[C@H](CCC(=O)O)NC(=O)[C@H](CCCCN)NC(=O)[C@@H](NC(=O)[C@H](C)NC(=O)[C@H](CCC(=O)O)NC(=O)CNC(=O)[C@H](CCC(=O)O)NC(=O)[C@H](CC(C)C)NC(=O)[C@H](Cc1ccc(O)cc1)NC(=O)[C@H](CO)NC(=O)[C@H](CO)NC(=O)[C@@H](NC(=O)[C@H](CC(=O)O)NC(=O)[C@H](CO)NC(=O)[C@@H](NC(=O)[C@H](Cc1ccccc1)NC(=O)[C@@H](NC(=O)CNC(=O)[C@H](CCC(=O)O)NC(=O)C(C)(C)NC(=O)[C@@H](N)Cc1c[nH]cn1)[C@@H](C)O)[C@@H](C)O)C(C)C)C(C)C)C(=O)N[C@@H](C)C(=O)N[C@@H](Cc1c[nH]c2ccccc12)C(=O)N[C@@H](CC(C)C)C(=O)N[C@H](C(=O)N[C@@H](CCC(=O)O)C(=O)N[C@@H](CCCCN)C(=O)N[C@H](C(=O)N[C@@H](CCCCN)C(=O)N[C@@H](CC(=O)O)C(=O)N[C@@H](Cc1ccccc1)C(=O)N[C@@H](CC(C)C)C(N)=O)C(C)C)C(C)C` [Compound 114, [Aib8,Glu23,Val25,Glu34,Lys35,Val36,Lys37]-GLP-1-(7-37)-peptidyl-Asp-Phe-Leu amide] (H-H[Aib]EGTFTSDVSSYLEGEAVKEFIAWLVEKVKDFL-NH2), with 103%; and `CC[C@H](C)[C@H](NC(=O)[C@H](Cc1ccccc1)NC(=O)[C@H](CCC(=O)O)NC(=O)[C@H](CCCCN)NC(=O)[C@H](C)NC(=O)[C@H](C)NC(=O)[C@H](CCC(N)=O)NC(=O)CNC(=O)[C@H](CCC(=O)O)NC(=O)[C@H](CC(C)C)NC(=O)[C@H](Cc1ccc(O)cc1)NC(=O)[C@H](CO)NC(=O)[C@H](CO)NC(=O)[C@@H](NC(=O)[C@H](CC(=O)O)NC(=O)[C@H](CO)NC(=O)[C@@H](NC(=O)[C@H](Cc1ccccc1)NC(=O)[C@@H](NC(=O)CNC(=O)[C@H](CCC(=O)O)NC(=O)C(C)(C)NC(=O)[C@@H](N)Cc1c[nH]cn1)[C@@H](C)O)[C@@H](C)O)C(C)C)C(=O)N[C@@H](C)C(=O)N[C@@H](Cc1c[nH]c2ccccc12)C(=O)N[C@@H](CC(C)C)C(=O)N[C@H](C(=O)N[C@@H](CCCCN)C(=O)N[C@@H](CCCCN)C(=O)NC(C)(C)C(=O)N[C@@H](CCCCN)C(=O)N[C@@H](CCC(=O)O)C(=O)N[C@@H](Cc1ccccc1)C(=O)N[C@@H](CC(C)C)C(N)=O)C(C)C` [Compound 47, [Aib8,Lys35,Aib36,Lys37]-GLP-1-(7-37)-peptidyl-Glu-Phe-Leu amide], with 55%.
